In patent US20220033448A1, “METHODS FOR AGGREGATION OF PROTEINS” (priority 2011, published 2022):
No end group written: not given here.

Legend:
β-Gal [1] = biological target: T1, β-Gal (Escherichia coli, UniProt P00722)
Experimental: In this in vitro experiment the affinity of different interferor peptides was measured for binding to β-gal by means of surface plasmon resonance (SPR). SPR experiments were performed at 25° C. using a Biacore T100 equipped with CM5 sensor chip (GE Healthcare.). Coupling reagents (N-ethyl-N′-(3-dimethylaminopropyl)carbodiimide (EDC), N-hydroxysuccinimide (NHS) and ethanolamine-HCI) were purchased from GE Healthcare. BSA and β-gal were purchased from Sigma-Aldrich and Roche Diagnostics, respectively. […] The proteins BSA and β-Gal were immobilized respectively, in the reference and sample channels on a CM5 sensor chip by standard amine coupling chemistry at a flow of 10 μl min^−1. The carboxymethyl dextran surface was activated by the injection of a 1:1 ratio of EDC and NHS for 7 minutes. The proteins were diluted in 10 mM sodium-acetate buffer, pH 4.5 to a final concentration of 0.2 mg m1^−1 and injected in short pulses over the activated surface until the immobilization levels reached 4000 RU or 8000 RU, for BSA and β-Gal, respectively. The remaining reactive groups were blocked with 1 M ethanolamine, pH 8. After completion of coupling, the surface was regenerated with short pulses of 50 mM NaOH and 8 M urea to remove non-covalently attached proteins. […] The peptides, dissolved in the running buffer (10 mM sodium phosphate, pH 6.8, 150 mM NaCI, 3 mM EDTA and 0.015% Tween 20) at a concentration of 1 μM, were injected for 60 s at a flow rate of 30 μl min^−1 and then allowed to dissociate for 600 s. The injection was repeated on the same surface as well as on independently immobilized surfaces. The surface was regenerated between each cycle by 30 s pulses of i) 50 mM NaOH, and ii) 8 M urea, and was allowed to stabilize for 400 s before the next cycle.
The peptide dissolved in the running buffer was injected for 60 s at a flow-rate of 301.11min′ over the reference (BSA) and sample (β-Gal) surfaces in a range of concentrations (0-4 μM, with one internal replicate) and were then allowed to dissociate for 600 s. The concentration series were repeated on the same surface (three times) as well as on independently immobilized surfaces. The surface was regenerated between each cycle by 30 s pulses of i) 50 mM NaOH, and ii) 8 M urea, and was allowed to stabilize for 400 s before the next cycle.
The data were globally fitted to a three-state model, using the Biacore T100 software, assuming an initial encounter between the peptide in solution and the protein on the chip followed by a two-step rearrangement before an identical binding site becomes available at the growing β-sheet.

β-Gal [2] = biological target: T1, β-Gal; settings: 10 μM peptide and 10 μM β-Gal; 20 mM sodium phosphate buffer, pH 6.8
Experimental: The co-aggregation of Tango 1 peptide, Tango 2 peptide and a tandem repeat of Tango 2 peptide with 13-Gal in vitro were monitored via light scattering from the apparent change in the optical density (OD) at 340 nm due to growth of aggregate particulates at room temperature. The interferor-β-Gal co-aggregation was initiated by adding equimolar molar concentration (10 μM) of either Tango 1 peptide, either Tango 2 peptide, either tandem repeat of Tango 2 peptide and β-Gal in 20 mM sodium phosphate buffer, pH 6.8 followed by gently stirring the sample at 50 rpm.
To characterise the size of the aggregates the hydrodynamic radius (RH) of β-Gal at time zero and after co-incubation with the either Tango 1 peptide, either Tango 2 peptide, either tandem repeat of Tango 2 peptide (Table 14) for 2 h was measured using dynamic light scattering (DLS), DynaPro DLS (Wyatt Technology Europe, Germany).

β-Gal [3] = biological target: T1, β-Gal; settings: equimolar concentrations of enzyme and interferor (10 μM)
Experimental: Enzyme functional readout was performed using the substrate fluorescein-di-I3-D-galactopyranoside (FDG), which is non-fluorescent but on enzymatic cleavage by β-Gal fluorescent fluorescein is liberated with intensity proportional to the catalytic activity.

EGFR family = assay: EGF-induced ERK1/2 phosphorylation in HeLa cells (cross reactivity of VEGFR2 peptides); format: cell-based, human; settings: EGF 25 ng/ml
Experimental: As a next step, to test the specificity of the VEGFR2 peptides, we tested their cross reactivity towards the EGFR family. Therefore, HeLa cells were treated with peptide B8 and B12 and subsequently stimulated with EGF (25ng/ml).

mVEGFR2 = biological target: T2, mVEGFR2 (Mus musculus, UniProt P35918); assay: Immunohistochemical staining of mVEGFR2 in HEK293 cells (cellular localization); format: cell-based; settings: 10 μM, overnight treatment
T2 construct: expressed in transfected cells; host or cells: HEK293
T2 sequence (P35918 20-1345): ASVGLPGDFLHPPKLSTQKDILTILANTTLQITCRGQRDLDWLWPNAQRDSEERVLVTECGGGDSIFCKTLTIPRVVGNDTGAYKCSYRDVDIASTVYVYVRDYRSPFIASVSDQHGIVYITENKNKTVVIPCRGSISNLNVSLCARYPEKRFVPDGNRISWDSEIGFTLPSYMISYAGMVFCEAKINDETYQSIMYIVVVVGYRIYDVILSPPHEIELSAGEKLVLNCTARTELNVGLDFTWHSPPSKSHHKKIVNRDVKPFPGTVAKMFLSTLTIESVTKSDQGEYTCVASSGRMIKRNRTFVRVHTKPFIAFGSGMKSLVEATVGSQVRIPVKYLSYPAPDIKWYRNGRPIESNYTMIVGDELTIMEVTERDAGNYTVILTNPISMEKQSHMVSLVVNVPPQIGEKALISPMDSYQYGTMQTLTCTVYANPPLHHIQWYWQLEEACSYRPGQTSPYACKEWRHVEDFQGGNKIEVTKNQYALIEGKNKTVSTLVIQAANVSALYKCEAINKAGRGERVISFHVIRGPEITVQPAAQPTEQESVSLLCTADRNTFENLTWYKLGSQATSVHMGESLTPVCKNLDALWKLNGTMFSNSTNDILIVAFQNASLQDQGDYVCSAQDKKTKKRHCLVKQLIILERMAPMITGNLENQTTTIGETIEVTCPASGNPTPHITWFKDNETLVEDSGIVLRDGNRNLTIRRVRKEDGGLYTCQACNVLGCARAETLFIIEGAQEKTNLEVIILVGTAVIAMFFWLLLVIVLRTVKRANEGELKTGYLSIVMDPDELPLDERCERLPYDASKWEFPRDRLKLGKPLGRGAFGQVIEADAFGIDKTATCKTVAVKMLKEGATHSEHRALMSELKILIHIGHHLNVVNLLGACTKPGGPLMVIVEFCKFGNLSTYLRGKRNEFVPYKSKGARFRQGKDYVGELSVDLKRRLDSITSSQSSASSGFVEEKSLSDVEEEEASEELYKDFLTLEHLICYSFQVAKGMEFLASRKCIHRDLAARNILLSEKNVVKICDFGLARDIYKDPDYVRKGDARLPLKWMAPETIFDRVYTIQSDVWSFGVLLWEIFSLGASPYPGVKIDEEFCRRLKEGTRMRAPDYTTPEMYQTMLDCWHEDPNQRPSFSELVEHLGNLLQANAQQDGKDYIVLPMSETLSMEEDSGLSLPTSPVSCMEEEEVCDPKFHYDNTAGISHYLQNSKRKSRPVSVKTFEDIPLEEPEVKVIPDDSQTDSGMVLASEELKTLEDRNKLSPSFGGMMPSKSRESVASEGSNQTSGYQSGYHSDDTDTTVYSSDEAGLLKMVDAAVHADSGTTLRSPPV
Experimental: To better understand the cellular mechanism of peptide inhibition, a preliminary experiment was performed in which cells were stained with an anti-VEGFR2 antibody to track the cellular localization.

human erythrocytes = format: cell-based
Description: The detergent Tween was used as a positive control, causing 100% lysis of RBCs.

Corynebacterium = settings: peptides with purity of >95%
Experimental: (§1) Bacteria were grown in a shaking incubator at 37° C. and 160rpm in 50 ml BHI , using individual colonies retrieved from a fresh overnight TSA-sheep blood plate. The cultures were grown to a density of approximately 1×10^8cells/ml and then diluted to 5×10^5 cells/ml in CAMHB (Mc Farland 0.5). Each well contained 100p.I (50p.I of peptide containing MHB plus 50 μl inoculum). The final cell density was 1×10^5 to 5×10^5/ml. After addition of the cell suspension, plates were incubated at 37° C. for 18 to 24 hours. The optical density at 590 nm (OD590) of each well was measured after 5 seconds of shaking the plate using Perkin Elmer spectrophotometer (1420 Multilabel Counter Vicotr 3). […] Each well, where no growth was observed, was also plated on TSA-sheep blood agar plates, incubated at 37° C. overnight and visually inspected.
(§2) A microbroth dilution method was used with twofold serial dilutions in CAMHB (according to EMEA guidelines) was used for screening of peptide activity, with concentrations ranging from 0.3 μg/mIto 200 μg/ml.

S. aureus ATCC 27853 = assay: Invasion assay: bacteria in infected HCT116 cell monolayers (CFU count); format: cell-based; settings: 100 μg/ml, 90 minutes infection, 1 h treatment
Experimental: In this assay HCT116 cell monolayers (a human colon tumor cell line) were cultured at the bottom of a microwell plate. The next day fresh S. aureus ATCC 27853 bacteria were added (approximately 10^6 CFU/ml) and a negative uninfected control included. After 90 minutes of infection different dilution of peptides were added and the cultures were incubated for another hour. As a positive control Gentamycin was used, given that it has a good intracellular activity. Each well was washed with pre-warmed physiological water to get rid of any extra-cellular bacteria, followed by 1% Triton treatment to release all entrapped bacteria from mammalian cells. The content of the well was serially diluted and plated on TSA agar plates for CFU count.

Candida albicans SC5314 = assay: In vitro mature C. albicans biofilm formation on polystyrene (XTT reduction assay); format: cell-based; settings: 250 μM, 50 μM and 10 μM; peptide during adhesion only or during whole biofilm development; p<0.001
Experimental: The initial screening and search for optimal Als3 candidate interferors was based on the C. albicans SC5314 adhesion assay on 96-well polystyrene plates upon administration of all the peptides at three different concentrations (250 μM, 50 μM and 10 μM). Based on the results obtained with this adhesion assay, we also tested the effect of peptides on mature biofilm development. The final election of the most optimal candidate interferor peptides was based on the results showing reduction in adhesion and mature biofilm formation caused by the lowest concentration of the peptide tested (10 μM or 2.5 μM).
In a next step, lower concentrations of peptide F9 (50 μM, 10 μM and 2.5 μM) were also tested. […] Both assays were performed in 96-well polystyrene plates and quantified by the XTT reduction assay (see material and methods section).
In vitro C. albicans biofilm was studied on three different types of biomaterials, namely flat bottom 96-well polystyrene plate (Greiner Bio-One, Germany), silicone (CS Hyde, USA) and polyurethane triple lumen intravenous catheters (2.4mm diameter) (Arrow International Reading, USA). […] After that, the biofilms were washed twice with 1×PBS and quantified.
The metabolic activity of Candida cells within in vitro biofilms was studied using the XTT reduction assay. […] The intensity of colorimetric change was measured by spectrophotometer (Spectra max Plus 384) at 490 nm. […]

[4] = 3-state model, 25° C., 0-4 μM peptide

T1 sequence (P00722 2-1024 with the stated changes limits assumed): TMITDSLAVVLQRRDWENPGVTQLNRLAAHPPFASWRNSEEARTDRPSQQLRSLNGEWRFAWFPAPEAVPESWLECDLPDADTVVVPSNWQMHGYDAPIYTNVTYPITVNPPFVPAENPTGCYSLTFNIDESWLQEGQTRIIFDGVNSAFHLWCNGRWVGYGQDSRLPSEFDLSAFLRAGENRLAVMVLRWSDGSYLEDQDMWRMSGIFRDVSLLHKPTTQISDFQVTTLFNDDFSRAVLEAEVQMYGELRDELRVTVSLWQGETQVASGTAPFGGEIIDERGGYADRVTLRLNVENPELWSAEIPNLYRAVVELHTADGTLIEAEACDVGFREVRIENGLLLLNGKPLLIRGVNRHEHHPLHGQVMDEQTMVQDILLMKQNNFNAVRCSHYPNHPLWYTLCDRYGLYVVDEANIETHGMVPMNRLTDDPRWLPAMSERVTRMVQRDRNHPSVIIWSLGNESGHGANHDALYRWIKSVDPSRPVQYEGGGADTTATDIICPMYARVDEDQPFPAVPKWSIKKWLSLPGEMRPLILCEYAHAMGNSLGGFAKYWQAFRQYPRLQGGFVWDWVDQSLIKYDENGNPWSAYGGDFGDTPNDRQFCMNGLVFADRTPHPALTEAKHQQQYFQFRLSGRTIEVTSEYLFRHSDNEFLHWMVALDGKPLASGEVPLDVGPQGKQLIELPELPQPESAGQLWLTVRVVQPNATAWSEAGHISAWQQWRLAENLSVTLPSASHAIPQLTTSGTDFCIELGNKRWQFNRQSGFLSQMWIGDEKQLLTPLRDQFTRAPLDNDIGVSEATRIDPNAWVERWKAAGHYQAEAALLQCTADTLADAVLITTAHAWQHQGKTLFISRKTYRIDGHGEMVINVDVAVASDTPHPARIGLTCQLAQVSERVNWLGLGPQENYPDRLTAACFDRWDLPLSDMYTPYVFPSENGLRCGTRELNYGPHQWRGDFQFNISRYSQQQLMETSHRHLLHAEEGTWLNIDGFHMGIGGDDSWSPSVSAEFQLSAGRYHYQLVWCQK
Experimental for S. epidermidis: as §1, §2

## (His)6~RLAVVLQR [Tango 1 peptide]
β-Gal [1]; 1 μM peptide, immobilized β-Gal
  binding affinity with β-Gal observed in SPR: weak binding affinity
β-Gal [2]
  co-aggregation kinetics with free β-Gal in solution: faster co-aggregation kinetics

## (His)6~RVIIWSLGNR [Tango 2 peptide]
β-Gal [1]; [4]
  ka1: 2.744E+4
  ka1 (second value printed): 0.02359
  ka3: 0.005491
  kd1: 0.4123
  kd2: 0.02509
  kd3: 0.002654
β-Gal [3]
  enzymatic activity of β-galactosidase: complete inhibition of enzymatic activity

## DLAVALWFDPPDLAVALWFD [B8]
EGFR family
  ERK1/2 phosphorylation after EGF stimulation: do not inhibit ERK1/2 phosphorylation
mVEGFR2
  cellular localization of VEGFR2: no longer present on the cell surface

## DMISYAGMDPPDMISYAGMD [B12, VEGFR2 peptide B12]
EGFR family
  ERK1/2 phosphorylation after EGF stimulation: do not inhibit ERK1/2 phosphorylation

## RFFIGLSRRGSRLFNFLKR [Hit57A]
Human erythrocytes
  hemolytic activity: no significant hemolytic activity at clinically relevant concentrations
S. aureus
  MIC: 50 µg/mL
  MIC in presence of 50% FBS: 100 µg/mL
  MIC values against MRSA 326: 6 µg/mL
Corynebacterium
  MIC values against Corynebacterium: Not active
S. aureus ATCC 27853
  numbers of bacteria in infected cell monolayers: effectively reduced the numbers of bacteria in infected cell monolayers

## RNGIVIVATTR [E1]
Candida albicans SC5314
  biofilm formation (metabolic activity compared to control): significant reduction in biofilm formation

## RRLFNFLKRGSRLFNFLKR [Hit24]
Human erythrocytes
  hemolytic activity: no significant hemolytic activity at clinically relevant concentrations
S. epidermidis
  MIC values against S.epidermidis ATCC 12228: 1.5 µg/mL
S. aureus
  MIC values against S.aureus ATCC 29213: 12.5 µg/mL
E. cloacae
  MIC: 25 µg/mL
